Source: ChEMBL document CHEMBL6103598, “One-Pot Synthesis of Novel Tetrasubstituted α-Aminophosphonates Derived from α-Methylphosphoserine and In Vivo Evaluation as Anti-Inflammatory Agents” (J Med Chem, 2025)
Active and inactive are the calls of the source. The calls are words filed in the database; no cut-off is given here.

What was measured:
Mus musculus [1] = assay: Antiinflammatory activity against TPA-induced ear edema in female CD1 mouse model assessed as reduction in ear edema administered topically incubated for 4 hrs measured per ear; type: functional, organism-based
Mus musculus [2] = assay: Antiinflammatory activity against TPA-induced ear edema in female CD1 mouse model assessed as reduction in ear edema by measuring maximum efficacy at 0.25 to 1.25 mg measured per ear incubated for 4 hrs administered topically relative to control; type: functional; settings: CD1, topical, dose 0.25-1.25 mg
Mus musculus [3] = assay: Antiinflammatory activity against TPA-induced ear edema in female CD1 mouse model assessed as reduction in ear edema by measuring effective dose measured per ear incubated for 4 hrs administered topically; type: functional
Mus musculus [4] = assay: Potency index, ratio of Indomethacin ED50 to test compound ED50 for antiinflammatory activity against TPA-induced ear edema in female CD1 mouse model assessed as reduction in ear edema by measuring effective dose measured per ear incubated for 4 hrs administered topically; type: functional
Mus musculus [5] = assay: Antiinflammatory activity against TPA-induced ear edema in female CD1 mouse model assessed as decrease in NLR value at 5.7 mg measured per ear administered topically incubated for 4 hrs by microscopic analysis relative to control; type: functional; set-up: scale not given: the % may be the effect or the level left
Mus musculus [6] = assay: Antiinflammatory activity against CFA-induced paw edema in female CD1 mouse model assessed as reduction in paw swelling by measuring AUC at 10 mg/kg, po preincubated with compound for 30 mins followed by CFA stimulation and measured after 2 to 6 hrs relative to control; type: functional; set-up: scale not given: the % may be the effect or the level left; settings: time 2.5-6.5 hrs
Mus musculus [7] = assay: Antiinflammatory activity against CFA-induced paw edema in female CD1 mouse model assessed as reduction in paw swelling at 10 mg/kg, po preincubated with CFA followed by compound addition and measured after 25 to 28 hrs relative to control; type: functional; set-up: scale not given: the % may be the effect or the level left; settings: time 25-28 hrs
[8] = Octanol/water partition coefficient, logP of compound by shake flask method; type: physicochemical
Mus musculus [9] = assay: Antiinflammatory activity against CFA-induced paw edema in female CD1 mouse model assessed as reduction in paw swelling at 10 mg/kg, po preincubated with compound for 30 mins followed by CFA stimulation and measured after 2 to 6 hrs; type: functional, organism-based; settings: time 2.5-6.5 hrs
Mus musculus [10] = assay: Antiinflammatory activity against CFA-induced paw edema in female CD1 mouse model assessed as reduction in paw swelling at 10 mg/kg, po preincubated with compound for 30 mins followed by CFA stimulation and measured after 24 hrs; type: functional, organism-based; settings: time 24.5 hrs
Mus musculus [11] = assay: Antiinflammatory activity against TPA-induced ear edema in female CD1 mouse model assessed as decrease in NLR value at 1 mg measured per ear administered topically incubated for 4 hrs by microscopic analysis relative to control; type: functional; set-up: scale not given: the % may be the effect or the level left
Mus musculus [12] = assay: Antiinflammatory activity against TPA-induced ear edema in female CD1 mouse model assessed as decrease in NLR value at 3 mg measured per ear administered topically incubated for 4 hrs by microscopic analysis relative to control; type: functional; set-up: scale not given: the % may be the effect or the level left

Row | Compound | Activity (Mus musculus [1]) | Emax (Mus musculus [2]) [%] | ED50 (Mus musculus [3]) [mg] | Ratio ED50 (Mus musculus [4]) | Activity (Mus musculus [5]) [%] | Activity (Mus musculus [6]) [%] | Activity (Mus musculus [7]) [%] | logP [8] | Activity (Mus musculus [9]) | Activity (Mus musculus [10]) | Activity (Mus musculus [11]) [%] | Activity (Mus musculus [12]) [%]
1 | COc1ccc2cc([C@H](C)C(=O)OCC(C)(N[C@@H](C)c3ccccc3)P(=O)(OC)OC)ccc2c1 (stereo partly drawn) | Dose-dependent-effect | 93.9 | 0.26 | 2.1 | 46.7 | 47.8 | 21.7 | 4.8 | Active | inactive | – | –
2 | COc1ccc2c(c1)c(CC(=O)O)c(C)n2C(=O)c1ccc(Cl)cc1 [INDOMETHACIN] | – | 89.3 | 0.54 | – | – | 58.7 | 36.5 | 3.99 | Active | inactive | 59.3 | –
3 | CCC(=O)OCC(C)(NCc1ccccc1)P(=O)(OC)OC (stereo not drawn) | Dose-dependent-effect | 90.1 | 0.48 | 1.1 | 48 | 47.8 | 21.7 | 3.3 | Active | inactive | – | –
4 | COP(=O)(OC)C(C)(COC(=O)c1ccccc1)NCc1ccccc1 (stereo not drawn) | Dose-dependent-effect | 83.3 | 0.49 | 1.1 | – | 47.8 | 21.7 | 4.2 | Active | inactive | – | –
5 | COc1ccc2cc([C@H](C)C(=O)OCC(C)(NCc3ccccc3)P(=O)(OC)OC)ccc2c1 (stereo partly drawn) | Dose-dependent-effect | 84.8 | 0.53 | 1 | – | 47.8 | 21.7 | 4.5 | Active | inactive | – | –
6 | COc1ccc2cc([C@H](C)C(=O)O)ccc2c1 [NAPROXEN] | Dose-dependent-effect | 90.6 | 0.13 | – | – | 55.4 | 39.8 | – | Active | inactive | 57.1 | –
7 | CCC(=O)OCC(C)(N[C@@H](C)c1ccccc1)P(=O)(OC)OC (stereo partly drawn) | Dose-dependent-effect | 85.9 | 0.66 | 0.8 | – | 47.8 | 21.7 | 3.5 | Active | inactive | – | –
8 | COP(=O)(OC)C(C)(COC(=O)c1ccccc1)N[C@@H](C)c1ccccc1 (stereo partly drawn) | Dose-dependent-effect | 91.8 | 0.46 | 1.2 | – | 47.8 | 21.7 | 4.4 | Active | inactive | – | 64.7
